Like-named read-outs stand apart in the source and are kept apart here.
Columns and labels:
[1] = tested on: normal epithelial breast cells (MCF10A); test: In vitro cytotoxicity MTT assay against normal breast MCF10A cells; assay type: cell-based; settings: for IC50: Homo sapiens, MCF-10A, MTT assay, normal breast cell line, mean ± SD of three replicates
From the text: Statistical significance was defined when p < 0.05.

[2] = tested on: MCF-7 (human breast adenocarcinoma) cell lines; test: In vitro cytotoxicity MTT assay against breast cancer MCF-7 cells
Procedure: Both MCF-7 and MCF10A cells were purchased from American Type Culture Collection (ATCC). Cells were grown in DMEM culture medium (Invitrogen/Life Technologies) supplemented with 10% FBS (Hyclone, USA), 10 μg/mL insulin (Sigma), and 1% penicillin-streptomycin antibiotic solution. Chemicals used were of cell culture grade and were purchased from Sigma or Invitrogen. Prior to the assay, cells (cells density 1.2–1.8 × 10,000 cells/well) were plated in 96-well plate with 100 μL medium and were allowed to grow for 24 h.
In vitro cytotoxic activity of the prepared compounds against breast (MCF-7) cancer cells was assessed using MTT assay [24, 25]. The assay depends on the mitochondrial reduction of the colorless 3-(4,5-methyl-2-thiazolyl)-2,5-diphenyl-2H-tetrazolium bromide (MTT) within viable cells into a dark blue formazan product. […] The supernatant was taken away from each well, and 100 μL of DMSO was added to each well to dissolve the formazan crystals. After mixing with a mechanical plate mixer, a microplate reader was used to measure the absorbance of each well at a wavelength of 570 nm. […] IC50 values were calculated from the linear regression of the corresponding calibration curves using the Origin® 6.1 software.
Results were analyzed with the help of SPSS 9.0 and were presented as mean ± SD of three replicates. The mean comparison between different evaluated groups was performed using ANOVA one-way analysis of variance. Statistical significance was defined when p < 0.05.

[3] = Homo sapiens, MCF7, 72 h, read-out: IC50 (μM) MCF-7, MTT assay, 0.39-100 μM, 3 days, mean ± SD of three replicates

With `COc1ccc2c(c1)CCCC2=NNC(=S)Nc1ccc(Br)cc1` [Compound 3a, N-(4-Bromophenyl)-2-(6-methoxy-3,4-dihydronaphthalen-1(2H)-ylidene)hydrazine-1-carbo thioamide] the melting point was 191 to 193 °C, the IC50 [1] was 35.4 ± 0.64 µM and the IC50 [2, 3] was 12.7 ± 0.33 µM. For the same compound, the “decrease in cytotoxicity relative to N-ethyl thiourea derivative 3d” value ([2]; MCF-7, N-4-bromophenyl versus N-ethyl substitution) was “more than 3 times”.

Work on `COc1ccc2c(c1)CCCC2=NNC(=S)Nc1ccc(F)cc1` [Compound 3b, N-(4-Fluorophenyl)-2-(6-methoxy-3,4-dihydronaphthalen-1(2H)-ylidene)hydrazine-1-carbo thioamide] yielded a melting point of 154 to 156 °C.

With `COc1ccc2c(c1)CCCC2=NNC(=S)Nc1ccc(Oc2ccccc2)cc1` [Compound 3c, 2-(6-Methoxy-3,4-dihydronaphthalen-1(2H)-ylidene)-N-(4-phenoxyphenyl)-hydrazine-1-carbo thioamide] the melting point was 171 °C.

Compound `CCNC(=S)NN=C1CCCc2cc(OC)ccc21` [Compound 3d, N-(4-Ethyl)-2-(6-methoxy-3,4-dihydronaphthalen-1(2H)-ylidene)hydrazine-1-carbothioamide] has a melting point of 150 to 153 °C, an IC50 [1] of 19.7 ± 0.51 µM and an IC50 [2, 3] of 3.73 ± 0.09 µM.

For `COc1ccc2c(c1)CCCC2=NN1C(=O)CSC1=Nc1ccc(Br)cc1` [Compound 4a, 2-((4-Bromophenyl)imino)-3-((6-methoxy-3,4-dihydronaphthalen-1(2H)-ylidene)amino) thiazolidin-4-one], the melting point was 183 °C, the IC50 [1] was 68 ± 0.86 µM and the IC50 [2, 3] was 28.6 ± 0.74 µM.

`COc1ccc2c(c1)CCCC2=NN1C(=O)CSC1=Nc1ccc(F)cc1` [Compound 4b, 2-((4-Fluorophenyl)imino)-3-((6-methoxy-3,4-dihydronaphthalen-1(2H)-ylidene)amino) thiazolidin-4-one] gave a melting point of 190 °C, an IC50 [1] of 29.2 ± 0.36 µM and an IC50 [2, 3] of 10.2 ± 0.26 µM.

For `COc1ccc2c(c1)CCCC2=NN1C(=O)CSC1=Nc1ccc(Oc2ccccc2)cc1` [Compound 4c, 3-((6-Methoxy-3,4-dihydronaphthalen-1(2H)-ylidene)amino)-2-((4-phenoxyphenyl)imino) thiazolidin-4-one], the melting point was 171 °C.

In the case of `CCN=C1SCC(=O)N1N=C1CCCc2cc(OC)ccc21` [Compound 4d, 2-(Ethylimino)-3-((6-methoxy-3,4-dihydronaphthalen-1(2H)-ylidene)amino)thiazolidin-4-one], the melting point is reported as 117 °C, the IC50 [1] is reported as 30.7 ± 0.53 µM and the IC50 [2, 3] is reported as 10.1 ± 0.26 µM.

For `COc1ccc(C2C(C#N)=C(N)Oc3c2sc(=Nc2ccc(Br)cc2)n3N=C2CCCc3cc(OC)ccc32)cc1` (stereo not drawn) [Compound 5a, 5-Amino-2-((4-bromophenyl)imino)-3-((6-methoxy-3,4-dihydronaphthalen-1(2H)-ylidene)amino)-7-(4-methoxyphenyl)-3,7-dihydro-2H-pyrano [2,3-d]thiazole-6-carbonitrile], the melting point was 247 °C, the IC50 [1] was 17.2 ± 0.44 µM and the “less toxic than Saturosporin towards MCF01A normal cells” value ([1]; compared with Saturosporin as worded) was “about 18.45 folds”. For the same compound, the IC50 [2, 3] was 0.93 ± 0.02 µM.

`COc1ccc2c(c1)CCCC2=Nn1c2c(sc1=Nc1ccc(Br)cc1)C(c1ccc([N+](=O)[O-])cc1)C(C#N)=C(N)O2` (stereo not drawn) [Compound 5b, 5-Amino-2-((4-bromophenyl)imino)-3-((6-methoxy-3,4-dihydronaphthalen-1(2H)-ylidene)amino)-7-(4-nitrophenyl)-3,7-dihydro-2H-pyrano [2,3-d]thiazole-6-carbonitrile] showed a melting point of 213 °C.

`COc1ccc(C2C(C#N)=C(N)Oc3c2sc(=Nc2ccc(Oc4ccccc4)cc2)n3N=C2CCCc3cc(OC)ccc32)cc1` (stereo not drawn) [Compound 5d, 5-Amino-3-((6-methoxy-3,4-dihydronaphthalen-1(2H)-ylidene)amino)-7-(4-methoxyphenyl) -2-((4-phenoxyphenyl)imino)--3,7-dihydro-2H-pyrano [2,3-d]thiazole-6-carbonitrile] showed a melting point of 209 °C, an IC50 [1] of 16.3 ± 0.42 µM and an IC50 [2, 3] of 1.76 ± 0.04 µM.

`COc1ccc2c(c1)CCCC2=Nn1c2c(sc1=Nc1ccc(Oc3ccccc3)cc1)C(c1ccc([N+](=O)[O-])cc1)C(C#N)=C(N)O2` (stereo not drawn) [Compound 5e, 5-Amino-3-((6-methoxy-3,4-dihydronaphthalen-1(2H)-ylidene)amino)-7-(4-nitrophenyl)-2-((4-phenoxyphenyl)imino)--3,7-dihydro-2H-pyrano [2,3-d]thiazole-6-carbonitrile] showed a melting point of 223 °C, an IC50 [1] of 14.1 ± 0.36 µM and an IC50 [2, 3] of 2.36 ± 0.06 µM.

For `COc1ccc2c(c1)CCCC2=Nn1c2c(sc1=Nc1ccc(Oc3ccccc3)cc1)C(c1ccco1)C(C#N)=C(N)O2` (stereo not drawn) [Compound 5f, 5-Amino-7-(furan-2-yl)-3-((6-methoxy-3,4-dihydronaphthalen-1(2H)-ylidene)amino)-2-((4-phenoxyphenyl)imino)-3,7-dihydro-2H-pyrano [2,3-d]thiazole-6-carbonitrile], the melting point was 280 °C.

With `COc1ccc2c(c1)CCCC2=NN1C(=O)C(=CN(C)C)SC1=Nc1ccc(Br)cc1` [Compound 6, 2-((4-Bromophenyl)imino)-5-((dimethylamino)methylene)-3-((6-methoxy-3,4-dihydronaphthalene-1(2H)-ylidene)amino)thiazolidin-4-one] the melting point was 236 °C, the IC50 [1] was 17.78 ± 0.16 µM and the IC50 [2, 3] was 7.48 ± 0.19 µM.

`CCOC(=O)c1cc2sc(=Nc3ccc(Br)cc3)n(N=C3CCCc4cc(OC)ccc43)c2nc1C` [Compound 7, Ethyl-2-((4-bromophenyl)imino)-3-((6-methoxy-3,4-dihydronaphthalen-1(2H)-ylidene)amino)-5-methyl-2,3-dihydrothiazolo [4,5-b]pyridine-6-carboxylate] gave a melting point of 90 °C.

Compound `COc1ccc2c(c1)CCC/C2=N\n1/c(=N/c2ccc(Br)cc2)sc2cc(C(C)=O)c(C)nc21` [Compound 8] has a melting point of 128 °C, an IC50 [1] of 43.7 ± 0.59 µM and an IC50 [2, 3] of 20 µM. For the same compound, the IC50 ([2]; read-out: IC50 (μM) MCF-7, MTT assay, 0.39-100 μM, 3 days, mean ± SD of three replicates) was 20 ± 0.52 µM.

For `COc1ccc2c(c1)CCCC2=Nn1c(=Nc2ccc(Br)cc2)sc2cc(C#N)c(=O)[nH]c21` [Compound 9, 2-((4-Bromophenyl)imino)-3-((6-methoxy-3,4-dihydronaphthalen-1(2H)-ylidene)amino)-5-oxo-2,3,4,5-tetrahydrothiazolo [4,5-b]pyridine-6-carbonitrile], the melting point was 224 °C.

Work on `COc1ccc2c(c1)CCCC2=Nn1c(=Nc2ccc(Br)cc2)sc2cc(C#N)c(=S)[nH]c21` [Compound 10, 2-((4-Bromophenyl)imino)-3-((6-methoxy-3,4-dihydronaphthalen-1(2H)-ylidene)amino)-5-thioxo-2,3,4,5-tetrahydrothiazolo [4,5-b]pyridine-6-carbonitrile] yielded a melting point of 286 °C, an IC50 [1] of 15 ± 0.39 µM and an IC50 [2, 3] of 2.83 ± 0.07 µM.

Compound `COc1ccc2c(c1)CCCC2=NN1C(=O)C(=CNc2nc3ccccc3[nH]2)SC1=Nc1ccc(Br)cc1` [Compound 11, 5-((1H-Benzo [d]imidazol-2-ylamino)methylene)-2-(4-bromophenylimino)-3-((6-methoxy-3,4-dihydronaphthalen-1(2H)-ylidene)amino)thiazolidin-4-one] has a melting point of 220 °C.

For `COc1ccc2c(c1)CCCC2=NN1C(=O)C(=CNc2nccs2)SC1=Nc1ccc(Br)cc1` [Compound 12, 2-(4-Bromophenylimino)-3-((6-methoxy-3,4-dihydronaphthalen-1(2H)-ylidene)amino)-5-((thiazol-2-ylamino)methylene)thiazolidin-4-one], the melting point was 152 °C.
